Assay results as given in the supplement of paper PMC10307832.

How the values were obtained:
Experiment in all cases: relative viability (nuclei count vs DMSO), 5 days (fraction); higher = more cells survive
Afatinib + Navitoclax = compound: CN(C)C/C=C/C(=O)Nc1cc2c(Nc3ccc(F)c(Cl)c3)ncnc2cc1O[C@H]1CCOC1 [Afatinib] + CC1(C)CCC(c2ccc(Cl)cc2)=C(CN2CCN(c3ccc(C(=O)NS(=O)(=O)c4ccc(N[C@H](CCN5CCOCC5)CSc5ccccc5)c(S(=O)(=O)C(F)(F)F)c4)cc3)CC2)C1 [Navitoclax] (partner 0.5 µM)
Method in brief: (§1)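 Cells from lung cancer lines were seeded into 1536-well plates and, one day later, dosed by pin tool. Treatments were either a single drug or a fixed dose of an anchor drug with five library-drug doses (not always all listed) in √10 steps. After 5 days, nuclei were stained in a one-step fixation (final 0.05% Triton X-100, 1% formaldehyde, 1 ug/ml Hoechst) and counted on 4× images, and relative viability is the treated-to-vehicle nuclei ratio, as the median of duplicate plates.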

Afatinib + Crizotinib = compound: CN(C)C/C=C/C(=O)Nc1cc2c(Nc3ccc(F)c(Cl)c3)ncnc2cc1O[C@H]1CCOC1 [Afatinib] + C[C@@H](Oc1cc(-c2cnn(C3CCNCC3)c2)cnc1N)c1c(Cl)ccc(F)c1Cl [Crizotinib] (partner 1 µM)
Method in brief: as §1

Afatinib + Tozasertib = compound: CN(C)C/C=C/C(=O)Nc1cc2c(Nc3ccc(F)c(Cl)c3)ncnc2cc1O[C@H]1CCOC1 [Afatinib] + Cc1cc(Nc2cc(N3CCN(C)CC3)nc(Sc3ccc(NC(=O)C4CC4)cc3)n2)n[nH]1 [Tozasertib] (partner 0.1 µM)
Method in brief: as §1

Afatinib + Vorinostat = compound: CN(C)C/C=C/C(=O)Nc1cc2c(Nc3ccc(F)c(Cl)c3)ncnc2cc1O[C@H]1CCOC1 [Afatinib] + O=C(CCCCCCC(=O)Nc1ccccc1)NO [Vorinostat] (partner 1 µM)
Method in brief: as §1

| Cell Line | relative viability (Afatinib + Navitoclax; first compound 0.005 µM) | relative viability (Afatinib + Navitoclax; first compound 0.01581 µM) | relative viability (Afatinib + Navitoclax; first compound 0.05 µM) | relative viability (Afatinib + Navitoclax; first compound 0.1581 µM) | relative viability (Afatinib + Navitoclax; first compound 0.5 µM) | relative viability (Afatinib + Crizotinib; first compound 0.005 µM) | relative viability (Afatinib + Crizotinib; first compound 0.01581 µM) | relative viability (Afatinib + Crizotinib; first compound 0.05 µM) | relative viability (Afatinib + Crizotinib; first compound 0.1581 µM) | relative viability (Afatinib + Crizotinib; first compound 0.5 µM) | relative viability (Afatinib + Tozasertib; first compound 0.005 µM) | relative viability (Afatinib + Tozasertib; first compound 0.01581 µM) | relative viability (Afatinib + Tozasertib; first compound 0.05 µM) | relative viability (Afatinib + Tozasertib; first compound 0.1581 µM) | relative viability (Afatinib + Tozasertib; first compound 0.5 µM) | relative viability (Afatinib + Vorinostat; first compound 0.005 µM) | relative viability (Afatinib + Vorinostat; first compound 0.01581 µM) | relative viability (Afatinib + Vorinostat; first compound 0.05 µM) | relative viability (Afatinib + Vorinostat; first compound 0.1581 µM) | relative viability (Afatinib + Vorinostat; first compound 0.5 µM) |
| --- | --- | --- | --- | --- | --- | --- | --- | --- | --- | --- | --- | --- | --- | --- | --- | --- | --- | --- | --- | --- |
| PC-14 | 0.377 | 0.334 | 0.372 | 0.334 | 0.349 | 0.419 | 0.275 | 0.257 | 0.239 | 0.242 | 0.228 | 0.257 | 0.254 | 0.232 | 0.247 | 0.112 | 0.0624 | 0.108 | 0.0886 | 0.124 |
| A-427 | 1.01 | 0.997 | 1.05 | 0.965 | 0.992 | 0.999 | 0.963 | 1.04 | 0.845 | 0.855 | 0.204 | 0.193 | 0.192 | 0.173 | 0.225 | 0.929 | 0.89 | 0.848 | 0.833 | 0.908 |
| H3255 | 0.101 | 0.0707 | 0.086 | 0.0584 | 0.076 | 0.225 | 0.191 | 0.265 | 0.166 | 0.226 | 0.315 | 0.204 | 0.222 | 0.168 | 0.195 | 0.277 | 0.207 | 0.229 | 0.185 | 0.952 |
| HCC-44 | 1.01 | 1.01 | 1.02 | 0.899 | 1.13 | 0.902 | 0.866 | 0.786 | 0.782 | 0.847 | 1.18 | 1.02 | 1 | 0.946 | 0.897 | 1.18 | 1.09 | 1.18 | 1.1 | 1.05 |
| NCI-H1734 | 1.01 | 0.877 | 0.885 | 0.78 | 0.781 | 0.82 | 0.687 | 0.652 | 0.568 | 0.642 | 0.253 | 0.255 | 0.269 | 0.289 | 0.26 | 0.795 | 0.826 | 0.874 | 0.779 | 0.831 |
| NCI-H2228 | 0.864 | 0.906 | 0.865 |  | 0.51 | 0.455 | 0.46 | 0.345 |  | 0.34 | 0.271 | 0.259 | 0.217 | 0.191 | 0.205 | 0.928 | 0.444 | 0.566 | 0.698 | 0.462 |
| COR-L23 | 1.14 | 0.982 | 0.948 | 0.997 | 1.03 | 0.803 | 0.583 | 0.634 | 0.603 | 0.75 | 0.216 | 0.202 | 0.216 | 0.167 | 0.166 | 0.682 | 0.443 | 0.484 | 0.39 | 0.485 |
| NCI-H1993 | 0.674 | 0.722 | 0.735 | 0.788 | 0.704 | 0.647 | 0.732 | 0.656 | 0.76 | 0.771 | 0.556 | 0.582 | 0.601 | 0.617 | 0.549 | 0.662 | 0.437 | 0.731 | 0.466 | 0.541 |
| NCI-H1437 | 1.1 | 1.1 | 1.17 | 1.1 | 1.1 | 0.985 | 1.01 | 0.988 | 0.881 | 0.966 | 0.416 | 0.43 | 0.41 | 0.397 | 0.412 | 0.841 | 0.831 | 0.967 | 0.776 | 0.908 |
| UMC-11 | 0.361 | 0.305 | 0.294 | 0.296 | 0.293 | 0.679 | 0.558 | 0.557 | 0.629 | 0.71 | 0.206 | 0.199 | 0.198 | 0.207 | 0.187 | 0.378 | 0.361 | 0.347 | 0.416 | 0.364 |
| 201T | 1.18 | 1.2 | 1.21 | 1.15 | 1.23 | 0.981 | 0.863 | 0.959 | 0.958 | 1 | 1.01 | 0.915 | 0.948 | 0.806 | 0.827 | 0.936 | 0.902 | 0.922 | 0.783 | 0.957 |
| ChaGo-K-1 | 1.12 | 0.707 | 0.979 | 0.826 | 1.05 | 1.27 | 1.14 | 1.17 | 1.16 | 1.17 | 0.231 | 0.239 | 0.225 | 0.215 | 0.212 | 0.81 | 0.777 | 0.789 | 0.754 | 0.695 |
| NCI-H1650 | 0.979 |  | 1.25 | 0.962 | 1.22 | 0.907 |  | 0.8 | 0.612 | 0.796 | 0.409 |  | 0.408 | 0.313 | 0.343 | 0.462 | 0.424 | 0.599 | 0.472 | 0.432 |
| LOU-NH91 | 0.402 | 0.39 | 0.441 | 0.348 | 0.402 | 0.523 | 0.574 | 0.69 | 0.488 | 0.542 | 0.475 | 0.444 | 0.527 | 0.51 | 0.479 | 0.742 | 0.776 | 0.837 | 0.748 | 0.848 |
| HOP-62 | 1.3 | 1.09 | 1.19 | 1.11 | 1.09 | 1.04 | 0.883 | 1.11 | 1.05 | 0.969 | 0.43 | 0.347 | 0.385 | 0.37 | 0.435 | 0.736 | 0.655 | 0.746 | 0.727 | 0.673 |
| NCI-H1915 | 0.795 | 0.763 | 0.779 | 0.813 | 0.778 | 1 | 0.963 | 0.872 | 0.957 | 0.894 | 0.522 | 0.46 | 0.414 | 0.427 | 0.419 | 0.525 | 0.518 | 0.497 | 0.476 | 0.464 |
